Legend:
[1] = Comparative planar scintigraphs, rat model; type: in vivo
Excerpt: (§1) The uptake of ^99mTc-MAG3 and of ^99mTc-DMSA are compared with the uptake of (ε-L-polylysine-DOTA, loaded with ^111In) in the rat and mouse model in planar scintigraphs.

[2] = Comparative planar scintigraphs, mouse model; type: in vivo
Excerpt: as §1

proteases = settings: in contrast to α-polylysine; cited from earlier work

Compound	kidney to background ratio compared with ε-L-polylysine-DOTA loaded with 111In [1]	kidney to background ratio compared with ε-L-polylysine-DOTA loaded with 111In [2]	enzymatic degradation by proteases (proteases)
O=C(O)CNC(=O)CNC(=O)CNC(=O)CS [^99mTc-MAG3, mercaptoacetyltriglycine, metal not drawn]	worse kidney to background ratio	worse kidney to background ratio	–
ε-polylysine	–	–	not enzymatically degraded

Source: patent US9078929B2, “ε-Polylysine conjugates and the use thereof” (Merck Patent GmbH, priority 2009, dated 2015)
